The target of data set [1] is Histone deacetylase (Homo sapiens) (UniProt Q13547+O15379+Q9UBN7+Q92769+Q9UQL6+Q8WUI4+Q9BY41+Q96DB2+P56524+Q9UKV0+Q969S8). Kind of data set: Inhibition of HDAC in human MV4-11 cells assessed as […] in acetylated histone H3 at 0.1 to 10 uM incubated for 6 hrs by Western blot analysis. The class given is cell-based. A general note: Immunoblotting shows a protein as a band on a membrane.

Data set [2] addresses T1, Histone deacetylase 7 (Homo sapiens, UniProt Q8WUI4).
T1 sequence (Q8WUI4 whole entry): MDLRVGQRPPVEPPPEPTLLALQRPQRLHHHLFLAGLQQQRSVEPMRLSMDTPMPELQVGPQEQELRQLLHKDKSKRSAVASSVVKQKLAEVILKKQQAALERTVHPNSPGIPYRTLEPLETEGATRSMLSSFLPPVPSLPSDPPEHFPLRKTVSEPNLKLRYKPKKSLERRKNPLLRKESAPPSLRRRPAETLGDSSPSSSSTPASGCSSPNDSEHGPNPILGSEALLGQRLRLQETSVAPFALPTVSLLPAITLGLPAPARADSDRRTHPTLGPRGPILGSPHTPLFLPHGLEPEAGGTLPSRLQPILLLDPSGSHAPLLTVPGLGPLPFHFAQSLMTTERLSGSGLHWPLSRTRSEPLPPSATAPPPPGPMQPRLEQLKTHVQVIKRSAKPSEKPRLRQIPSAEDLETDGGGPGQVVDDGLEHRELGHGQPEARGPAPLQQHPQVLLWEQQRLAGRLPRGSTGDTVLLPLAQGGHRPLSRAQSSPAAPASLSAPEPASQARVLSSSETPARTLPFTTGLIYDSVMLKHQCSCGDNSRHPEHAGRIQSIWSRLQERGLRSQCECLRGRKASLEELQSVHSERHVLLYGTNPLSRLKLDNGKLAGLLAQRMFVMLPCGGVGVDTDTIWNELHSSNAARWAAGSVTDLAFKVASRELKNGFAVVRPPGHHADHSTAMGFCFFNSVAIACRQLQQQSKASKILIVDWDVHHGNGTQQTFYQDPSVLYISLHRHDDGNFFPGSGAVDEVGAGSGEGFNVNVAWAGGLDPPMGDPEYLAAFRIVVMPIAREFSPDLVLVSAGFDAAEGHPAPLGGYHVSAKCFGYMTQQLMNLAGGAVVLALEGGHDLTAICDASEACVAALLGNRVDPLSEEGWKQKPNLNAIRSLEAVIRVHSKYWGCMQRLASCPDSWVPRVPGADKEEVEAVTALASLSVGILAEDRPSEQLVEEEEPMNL
Kind of data set: Inhibition of recombinant full length human HDAC7 expressed in baculovirus infected Sf9 cells using FAM-RHKK-TFAc as substrate incubated for 3 hrs by electrophoretic mobility shift assay. (A gel shift assay detects complexes by their altered migration in electrophoresis.)

Data set [3] has as its system MDA-MB-231. Kind of data set: Cytotoxicity against human MDA-MB-231 cells assessed as reduction in cell viability incubated for 72 hrs by cell-titer blue assay. Particulars: MDA-MB-231, 72 h. Type of data set: functional, cell-based.
Data set [4] is described as follows: Protein binding in CD-1 mouse plasma at 1 uM incubated for 6 hrs by LCMS analysis. Type of data set: ADME, cell-free. Particulars: CD-1, mouse, read-out: PPB (converted).
A short description of data set [5]: Stability in ICR/CD1 mouse hepatocytes assessed as half life at 1 uM measured upto 120 mins by LCMS analysis. Conditions: 2 h. Type of data set: ADME, cell-based, Hepatocyte.

Calls of active or inactive are those of the source. No cut-off for these calls is given here. Where only a bound is given, the exact number is not on record here.

The IC50 is the point on the concentration scale where inhibition reaches its midpoint.

`CC(C)(C)c1ccc(C(=O)Nc2ccc(C(=O)NO)cc2)cc1`: the inhibition result in data set [1] is “Active”. The IC50 in data set [2] is more than 1000 nM; in data set [3], more than 25 µM. Besides, the fraction unbound at 6 h, 1 µM in data set [4] is 0.047. Moreover, in data set [5], the t1/2 was found to be 28.3 min.
